Results as given in ChEMBL document CHEMBL5291721, “A preclinical secondary pharmacology resource illuminates target-adverse drug reaction associations of marketed drugs” (Nat Commun, 2023).

What was measured:
Thromboxane A2 receptor = target: T1, Thromboxane A2 receptor (Homo sapiens, UniProt P21731); type: functional, cell-based
T1 sequence (P21731 whole entry): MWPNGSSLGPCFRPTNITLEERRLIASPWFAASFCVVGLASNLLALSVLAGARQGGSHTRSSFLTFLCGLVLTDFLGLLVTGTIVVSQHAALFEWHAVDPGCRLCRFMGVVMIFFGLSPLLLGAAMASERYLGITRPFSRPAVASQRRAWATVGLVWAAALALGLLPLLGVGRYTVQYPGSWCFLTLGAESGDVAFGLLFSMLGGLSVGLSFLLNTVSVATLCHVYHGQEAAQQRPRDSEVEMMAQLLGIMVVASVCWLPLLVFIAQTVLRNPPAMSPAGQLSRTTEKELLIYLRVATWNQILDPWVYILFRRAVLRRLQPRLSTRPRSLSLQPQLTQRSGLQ

[1] = target: T2, Muscarinic acetylcholine receptor M2 (Homo sapiens, UniProt P08172)
T2 sequence (P08172 whole entry): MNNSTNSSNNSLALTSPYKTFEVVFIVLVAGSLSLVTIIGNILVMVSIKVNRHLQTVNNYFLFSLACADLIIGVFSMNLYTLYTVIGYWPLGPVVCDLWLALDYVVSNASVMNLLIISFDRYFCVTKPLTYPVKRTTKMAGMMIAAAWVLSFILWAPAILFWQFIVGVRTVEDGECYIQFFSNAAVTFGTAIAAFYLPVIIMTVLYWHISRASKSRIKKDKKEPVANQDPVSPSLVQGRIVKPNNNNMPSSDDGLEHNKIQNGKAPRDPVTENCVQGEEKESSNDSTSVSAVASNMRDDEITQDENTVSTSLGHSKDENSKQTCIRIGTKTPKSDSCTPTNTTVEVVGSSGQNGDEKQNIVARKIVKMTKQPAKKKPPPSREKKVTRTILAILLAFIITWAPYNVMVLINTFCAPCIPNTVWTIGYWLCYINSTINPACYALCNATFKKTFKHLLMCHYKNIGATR

[2] = target: Voltage-gated inwardly rectifying potassium channel KCNH2 (Homo sapiens, UniProt Q12809); type: functional; details: read-out: AC50
[3] = target: Sodium-dependent dopamine transporter (Homo sapiens, UniProt Q01959)
[4] = target: 3',5'-cyclic-AMP phosphodiesterase 4A (Homo sapiens, UniProt P27815); type: functional
[5] = target: Vascular endothelial growth factor receptor 2 (Homo sapiens, UniProt P35968); type: functional
[6] = target: cGMP-inhibited 3',5'-cyclic phosphodiesterase 3A (Homo sapiens, UniProt Q14432); type: functional
[7] = target: T3, Alpha-1A adrenergic receptor (Homo sapiens, UniProt P35348); type: functional, cell-based
T3 sequence (P35348 whole entry): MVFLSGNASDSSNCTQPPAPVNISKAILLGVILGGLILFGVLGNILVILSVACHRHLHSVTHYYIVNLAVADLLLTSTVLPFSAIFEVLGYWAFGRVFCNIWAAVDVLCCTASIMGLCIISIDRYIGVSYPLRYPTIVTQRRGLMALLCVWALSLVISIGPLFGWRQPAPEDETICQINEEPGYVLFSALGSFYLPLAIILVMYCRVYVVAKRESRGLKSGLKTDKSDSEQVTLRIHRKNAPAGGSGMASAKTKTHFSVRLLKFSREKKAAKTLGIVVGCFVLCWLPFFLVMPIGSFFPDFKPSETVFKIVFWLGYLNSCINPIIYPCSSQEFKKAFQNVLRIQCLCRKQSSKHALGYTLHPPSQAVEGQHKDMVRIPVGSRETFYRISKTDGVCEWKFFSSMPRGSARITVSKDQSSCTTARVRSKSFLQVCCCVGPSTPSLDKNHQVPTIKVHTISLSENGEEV

[8] = target: T4, Alpha-2A adrenergic receptor (Homo sapiens, UniProt P08913)
T4 sequence (P08913 whole entry): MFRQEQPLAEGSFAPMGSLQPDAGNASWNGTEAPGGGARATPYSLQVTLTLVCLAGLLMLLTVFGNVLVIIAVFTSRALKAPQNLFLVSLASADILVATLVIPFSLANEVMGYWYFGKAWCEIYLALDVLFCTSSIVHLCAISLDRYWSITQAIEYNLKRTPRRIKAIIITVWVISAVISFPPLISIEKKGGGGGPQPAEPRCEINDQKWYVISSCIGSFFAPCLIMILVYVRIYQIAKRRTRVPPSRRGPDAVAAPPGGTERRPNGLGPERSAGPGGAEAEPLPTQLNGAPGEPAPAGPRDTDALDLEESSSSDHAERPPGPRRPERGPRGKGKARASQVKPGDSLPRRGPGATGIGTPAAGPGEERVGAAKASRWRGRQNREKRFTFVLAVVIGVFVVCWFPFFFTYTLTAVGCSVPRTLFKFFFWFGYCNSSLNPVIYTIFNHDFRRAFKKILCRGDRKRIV

[9] = target: Prostaglandin G/H synthase 1 (Homo sapiens, UniProt P23219); type: functional
[10] = target: T5, Amine oxidase [flavin-containing] A (Homo sapiens, UniProt P21397); type: functional
T5 sequence (P21397 whole entry): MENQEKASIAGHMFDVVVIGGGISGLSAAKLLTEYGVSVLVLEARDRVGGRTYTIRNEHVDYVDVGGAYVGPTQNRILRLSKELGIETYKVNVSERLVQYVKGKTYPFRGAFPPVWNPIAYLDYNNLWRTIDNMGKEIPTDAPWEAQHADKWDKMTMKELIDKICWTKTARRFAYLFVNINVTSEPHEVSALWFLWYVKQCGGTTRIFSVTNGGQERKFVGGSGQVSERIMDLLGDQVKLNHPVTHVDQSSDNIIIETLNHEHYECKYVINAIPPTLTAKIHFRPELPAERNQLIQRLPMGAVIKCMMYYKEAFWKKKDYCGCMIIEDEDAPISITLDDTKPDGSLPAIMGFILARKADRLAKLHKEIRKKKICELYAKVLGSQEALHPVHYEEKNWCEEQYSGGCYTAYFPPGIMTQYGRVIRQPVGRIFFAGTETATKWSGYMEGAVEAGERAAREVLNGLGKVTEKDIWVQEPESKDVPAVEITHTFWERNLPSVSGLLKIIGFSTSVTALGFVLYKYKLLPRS
Further: assay procedure not described here.

Chain of cGMP-inhibited 3',5'-cyclic phosphodiesterase 3A (Q14432 whole entry): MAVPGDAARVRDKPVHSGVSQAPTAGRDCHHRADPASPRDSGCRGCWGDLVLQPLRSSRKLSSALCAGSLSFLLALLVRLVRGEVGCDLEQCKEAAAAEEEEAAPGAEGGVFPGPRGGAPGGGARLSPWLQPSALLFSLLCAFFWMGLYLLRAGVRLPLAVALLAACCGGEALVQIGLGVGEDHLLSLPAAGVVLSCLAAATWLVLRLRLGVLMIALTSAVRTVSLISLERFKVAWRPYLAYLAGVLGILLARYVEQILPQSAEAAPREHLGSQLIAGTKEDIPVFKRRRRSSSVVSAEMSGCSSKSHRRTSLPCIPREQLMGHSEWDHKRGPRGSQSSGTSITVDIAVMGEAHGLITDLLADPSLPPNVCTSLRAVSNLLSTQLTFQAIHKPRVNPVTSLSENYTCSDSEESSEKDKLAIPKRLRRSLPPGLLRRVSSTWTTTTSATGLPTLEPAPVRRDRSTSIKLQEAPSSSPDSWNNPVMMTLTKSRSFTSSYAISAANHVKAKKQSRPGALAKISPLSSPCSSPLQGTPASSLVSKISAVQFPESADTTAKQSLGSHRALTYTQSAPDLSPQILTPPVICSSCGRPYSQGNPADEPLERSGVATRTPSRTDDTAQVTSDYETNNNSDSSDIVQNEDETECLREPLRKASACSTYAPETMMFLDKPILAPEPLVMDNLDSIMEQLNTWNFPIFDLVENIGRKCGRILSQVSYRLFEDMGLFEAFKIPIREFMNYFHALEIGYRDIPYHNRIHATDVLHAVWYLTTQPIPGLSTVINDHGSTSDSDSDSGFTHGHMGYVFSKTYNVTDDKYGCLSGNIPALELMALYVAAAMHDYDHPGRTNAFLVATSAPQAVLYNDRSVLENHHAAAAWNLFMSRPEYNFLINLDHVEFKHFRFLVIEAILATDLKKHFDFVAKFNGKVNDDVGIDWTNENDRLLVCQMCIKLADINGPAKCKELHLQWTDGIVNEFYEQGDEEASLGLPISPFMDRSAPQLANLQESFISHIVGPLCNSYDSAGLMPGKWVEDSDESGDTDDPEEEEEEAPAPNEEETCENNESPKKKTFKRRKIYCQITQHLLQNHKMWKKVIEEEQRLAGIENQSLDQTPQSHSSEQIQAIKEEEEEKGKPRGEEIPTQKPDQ
Chain of Prostaglandin G/H synthase 1 (P23219 whole entry): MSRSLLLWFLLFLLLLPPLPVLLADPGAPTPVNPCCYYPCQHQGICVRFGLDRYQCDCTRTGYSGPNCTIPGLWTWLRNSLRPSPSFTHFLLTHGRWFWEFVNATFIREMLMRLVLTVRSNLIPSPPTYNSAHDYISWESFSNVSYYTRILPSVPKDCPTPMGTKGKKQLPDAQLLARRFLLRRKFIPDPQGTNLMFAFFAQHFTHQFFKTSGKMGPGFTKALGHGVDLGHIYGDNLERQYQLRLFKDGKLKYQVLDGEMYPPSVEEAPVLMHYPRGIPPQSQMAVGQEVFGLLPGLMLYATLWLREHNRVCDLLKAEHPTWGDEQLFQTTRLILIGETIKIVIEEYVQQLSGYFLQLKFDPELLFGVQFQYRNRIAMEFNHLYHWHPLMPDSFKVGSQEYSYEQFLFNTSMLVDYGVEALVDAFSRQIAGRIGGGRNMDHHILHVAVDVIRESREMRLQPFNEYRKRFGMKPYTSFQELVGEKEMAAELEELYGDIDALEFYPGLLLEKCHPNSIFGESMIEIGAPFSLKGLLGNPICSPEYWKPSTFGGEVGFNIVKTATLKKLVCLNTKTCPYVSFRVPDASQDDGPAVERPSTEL
Chain of 3',5'-cyclic-AMP phosphodiesterase 4A (P27815 whole entry): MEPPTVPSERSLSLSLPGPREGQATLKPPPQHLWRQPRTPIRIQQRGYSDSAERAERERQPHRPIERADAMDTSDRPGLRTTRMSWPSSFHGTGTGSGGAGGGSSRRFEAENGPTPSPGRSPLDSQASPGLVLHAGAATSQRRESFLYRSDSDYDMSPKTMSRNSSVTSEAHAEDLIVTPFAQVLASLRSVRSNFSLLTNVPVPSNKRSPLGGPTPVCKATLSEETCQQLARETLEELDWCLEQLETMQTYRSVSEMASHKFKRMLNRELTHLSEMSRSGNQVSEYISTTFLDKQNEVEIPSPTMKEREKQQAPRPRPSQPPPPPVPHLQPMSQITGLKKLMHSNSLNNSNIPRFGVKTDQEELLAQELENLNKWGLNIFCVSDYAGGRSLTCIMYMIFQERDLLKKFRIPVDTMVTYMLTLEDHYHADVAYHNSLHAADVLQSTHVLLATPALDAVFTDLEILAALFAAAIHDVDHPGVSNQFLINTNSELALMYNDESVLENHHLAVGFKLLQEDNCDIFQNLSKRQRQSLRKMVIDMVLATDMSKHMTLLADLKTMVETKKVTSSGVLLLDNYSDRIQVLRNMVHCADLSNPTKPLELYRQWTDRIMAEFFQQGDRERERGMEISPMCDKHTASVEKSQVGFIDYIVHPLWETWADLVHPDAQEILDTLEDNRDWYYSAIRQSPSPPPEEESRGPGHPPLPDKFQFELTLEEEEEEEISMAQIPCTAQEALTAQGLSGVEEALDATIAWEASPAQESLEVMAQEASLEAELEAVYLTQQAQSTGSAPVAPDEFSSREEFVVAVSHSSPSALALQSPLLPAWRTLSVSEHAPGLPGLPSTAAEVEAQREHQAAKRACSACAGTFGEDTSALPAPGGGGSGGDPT
Chain of Voltage-gated inwardly rectifying potassium channel KCNH2 (Q12809 whole entry): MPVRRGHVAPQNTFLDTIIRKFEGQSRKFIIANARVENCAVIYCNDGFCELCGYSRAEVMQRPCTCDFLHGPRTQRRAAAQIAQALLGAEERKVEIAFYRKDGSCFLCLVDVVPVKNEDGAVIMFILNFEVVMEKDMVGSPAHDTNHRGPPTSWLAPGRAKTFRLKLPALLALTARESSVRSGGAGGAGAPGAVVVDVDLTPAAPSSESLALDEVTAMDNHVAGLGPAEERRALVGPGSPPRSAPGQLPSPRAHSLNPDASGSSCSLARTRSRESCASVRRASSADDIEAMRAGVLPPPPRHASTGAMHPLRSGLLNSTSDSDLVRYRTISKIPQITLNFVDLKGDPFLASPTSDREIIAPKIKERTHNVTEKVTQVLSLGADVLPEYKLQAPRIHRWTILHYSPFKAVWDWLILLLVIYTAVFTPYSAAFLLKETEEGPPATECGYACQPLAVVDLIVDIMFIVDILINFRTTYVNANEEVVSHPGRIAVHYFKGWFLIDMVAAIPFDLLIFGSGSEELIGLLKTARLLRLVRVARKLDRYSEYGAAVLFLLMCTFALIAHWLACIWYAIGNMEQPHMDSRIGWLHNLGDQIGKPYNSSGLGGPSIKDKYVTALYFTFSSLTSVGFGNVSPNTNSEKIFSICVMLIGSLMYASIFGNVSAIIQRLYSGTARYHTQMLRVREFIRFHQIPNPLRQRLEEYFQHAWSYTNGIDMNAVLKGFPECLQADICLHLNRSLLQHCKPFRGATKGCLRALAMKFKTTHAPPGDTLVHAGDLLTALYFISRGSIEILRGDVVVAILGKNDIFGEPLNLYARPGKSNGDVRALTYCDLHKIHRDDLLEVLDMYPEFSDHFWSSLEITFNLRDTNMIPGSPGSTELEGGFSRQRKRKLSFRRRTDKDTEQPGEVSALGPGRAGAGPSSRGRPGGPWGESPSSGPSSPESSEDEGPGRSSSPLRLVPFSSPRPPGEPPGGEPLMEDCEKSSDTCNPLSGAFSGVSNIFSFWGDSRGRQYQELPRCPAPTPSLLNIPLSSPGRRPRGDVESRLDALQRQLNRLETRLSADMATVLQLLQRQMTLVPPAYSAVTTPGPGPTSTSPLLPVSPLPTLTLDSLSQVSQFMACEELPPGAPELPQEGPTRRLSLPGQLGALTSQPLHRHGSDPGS
Chain of Sodium-dependent dopamine transporter (Q01959 whole entry): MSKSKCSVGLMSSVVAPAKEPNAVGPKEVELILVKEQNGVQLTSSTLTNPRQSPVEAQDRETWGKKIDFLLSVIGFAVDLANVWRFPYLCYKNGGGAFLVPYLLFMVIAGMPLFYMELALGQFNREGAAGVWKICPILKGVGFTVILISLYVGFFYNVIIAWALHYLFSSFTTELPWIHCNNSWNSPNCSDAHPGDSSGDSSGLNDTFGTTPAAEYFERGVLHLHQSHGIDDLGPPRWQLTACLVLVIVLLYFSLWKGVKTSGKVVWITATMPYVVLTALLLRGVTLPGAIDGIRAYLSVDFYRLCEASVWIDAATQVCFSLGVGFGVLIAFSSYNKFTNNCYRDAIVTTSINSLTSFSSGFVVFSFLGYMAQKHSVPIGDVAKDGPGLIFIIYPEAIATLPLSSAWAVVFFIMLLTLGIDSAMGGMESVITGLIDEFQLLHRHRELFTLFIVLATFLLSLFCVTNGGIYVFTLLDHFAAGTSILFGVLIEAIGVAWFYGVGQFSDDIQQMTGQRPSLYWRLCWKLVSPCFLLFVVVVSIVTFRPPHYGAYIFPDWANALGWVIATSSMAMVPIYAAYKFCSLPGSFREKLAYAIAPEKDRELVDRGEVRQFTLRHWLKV

SMILES | AC50 (Thromboxane A2 receptor) [µM] | AC50 [1] [µM] | AC50 [2] [µM] | AC50 [3] [µM] | AC50 [4] [µM] | AC50 [5] [µM] | AC50 [6] [µM] | AC50 [7] [µM] | AC50 [8] [µM] | AC50 [9] [µM] | AC50 [10] [µM]
CCOC(=O)/C=C1\SC(N2CCCCC2)C(=O)N1C (stereo unspecified) [ETOZOLIN] | > 30 | > 30 | > 30 | > 30 | > 30 | > 30 | > 30 | > 30 | > 30 | > 30 | > 30
O=c1[nH]c(=O)n([C@H]2C[C@H](O)[C@@H](CO)O2)cc1F [FLOXURIDINE] | > 30 | > 30 | > 30 | > 30 | > 30 | > 30 | > 30 | > 30 | > 30 | > 30 | > 30
CCCCOC(=O)C(=O)[C@H]1[C@H](C)C[C@H]2[C@@H]3C[C@H](F)C4=CC(=O)C=C[C@]4(C)[C@H]3[C@@H](O)C[C@@]21C [FLUOCORTIN BUTYL] | > 30 | > 30 | 16 | 27.2 | > 30 | > 30 | > 30 | 13.1 | > 30 | > 30 | > 30
N[C@H]1C(O)O[C@H](CO)[C@@H](O)[C@@H]1O (stereo partly specified) [GLUCOSAMINE] | > 30 | > 30 | > 30 | > 30 | > 30 | > 30 | > 30 | > 30 | > 30 | > 30 | > 30
Clc1cc(Cl)c(OCC#CI)cc1Cl [HALOPROGIN] | > 30 | > 30 | 9.85 | 6.43 | > 30 | > 30 | > 30 | > 30 | 17.7 | > 30 | > 30
CCN(CC)CCNc1ccc(CO)c2sc3ccccc3c(=O)c12 [HYCANTHONE] | 23.1 | 4.47 | 3.6 | 12.5 | > 30 | > 30 | > 30 | 1.4 | 1.73 | > 30 | > 30
CC[C@H]1CN2CC[C@H]1C[C@H]2[C@H](O)c1ccnc2ccc(OC)cc12 [HYDROQUININE] | > 30 | 23.4 | 10 | 29.1 | > 30 | > 30 | > 30 | > 30 | 3.59 | > 30 | > 30
O=c1[nH]c(=O)n([C@H]2C[C@H](O)[C@@H](CO)O2)cc1I [IDOXURIDINE] | > 30 | > 30 | > 30 | > 30 | > 30 | > 30 | > 30 | > 30 | > 30 | > 30 | > 30
Cc1ccccc1OCC(O)CO (stereo unspecified) [MEPHENESIN] | > 30 | > 30 | > 30 | > 30 | > 30 | > 30 | > 30 | > 30 | > 30 | > 30 | > 30
CCN(CC)CCc1nc(-c2ccccc2)no1 [OXOLAMINE] | > 30 | > 30 | > 30 | > 30 | > 30 | > 30 | > 30 | > 30 | > 30 | > 30 | > 30
C[N+]1(CCCCC[N+]2(C)CCCC2)CCCC1 [PENTOLINIUM] | > 30 | > 30 | > 30 | > 30 | > 30 | > 30 | > 30 | > 30 | > 30 | > 30 | > 30
O=C(O)c1ccccc1C(=O)Nc1ccc(S(=O)(=O)Nc2nccs2)cc1 [PHTHALYLSULFATHIAZOLE] | > 30 | > 30 | > 30 | > 30 | > 30 | > 30 | > 30 | > 30 | > 30 | 8.95 | > 30
CC(C)(C)C(=O)OCOC(=O)[C@@H]1N2C(=O)[C@@H](NC(=O)[C@H](N)c3ccccc3)[C@H]2SC1(C)C [PIVAMPICILLIN] | > 30 | > 30 | > 30 | > 30 | > 30 | > 30 | > 30 | > 30 | > 30 | 7.48 | > 30
COc1cc([C@@H]2c3cc4c(cc3[C@H](O)[C@H]3COC(=O)[C@H]23)OCO4)cc(OC)c1OC [PODOFILOX] | > 30 | > 30 | > 30 | > 30 | > 10 | > 30 | > 30 | 6.56 | > 30 | > 30 | > 30
OC(CCN1CCCCC1)(c1ccccc1)c1ccccc1 [PRIDINOL] | > 30 | 0.129 | 8.8 | > 30 | > 30 | > 30 | > 30 | > 30 | > 30 | > 30 | > 30
CC(C)COC(=O)OCN1C(=O)CN(CCN2CC(=O)N(COC(=O)OCC(C)C)C(=O)C2)CC1=O [SOBUZOXANE] | > 30 | > 30 | > 30 | > 30 | > 30 | > 30 | > 30 | > 30 | > 30 | > 30 | > 30
